Here are results for 99 molecules from ChEMBL document CHEMBL3507680, “University of Dundee, Gates Library screen for HepG2 cell viability”.

This data set is described as follows: Human HepG2 cell viability assay in 384 well format. Conditions: HepG2 cells, read-out: Inhibition. Details: dose 125 nL, time 70.5 hour; cytotoxicity at 70.5 h: concentration not given beside the values. In kind it is toxicity, cell-based.
With `Cc1nc2c(C#N)cnn2c(C)c1CCC(=O)N(C)C1CC1`, the cytotoxicity at 70.5 h was determined as 8.54%.
The same measure for `CCCn1nc(-c2nc(COC)no2)ccc1=O`: -6.41%; for `O=c1[nH]c2nc(NCC3CCCO3)ncc2c(=O)n1-c1ccc(F)cc1` (centres undefined): 1.97%.
For `CCC(CC)n1nc(C)cc1NC(=O)C1CCOC1` (centres undefined) the value was -6.47%.
For `CC(C)(C)c1nnnn1CC(=O)N(CCC#N)c1ccccc1` the value was -9.07%.
For `CCN1CCn2c(C)cnc2C12CCN(C(=O)c1ccco1)CC2`, the cytotoxicity at 70.5 h was -4.85%.
As for `COC1CCN(C(=O)CC2CCCC2)CC(=O)N(C)c2ccccc21` (centres undefined), the cytotoxicity at 70.5 h is -0.0141%.
For `O=C(c1cccnc1O)N1CCC2(CCCO2)CC1` the value was -6.62%; for `O[C@H]1CC[C@@H](Cc2cc(-c3ccc(F)cc3)on2)O[C@@H]1CNCC1CC1`, -5.85%.
For `CN(C)S(=O)(=O)N1CCCC(c2ccncn2)C1` (centres undefined) the value was -5.39%.
On to `Cc1c(S(=O)(=O)N2CCCC2c2nnc(-c3ccsc3)o2)cnn1C` (centres undefined), for which the cytotoxicity at 70.5 h worked out at 0.227%.
The same measure for `Cc1noc(CN2CCN(C(=O)N(C)C)CC2)n1`: -11%; for `O=C(c1ccco1)N1CCC(n2nc(-c3cccs3)ccc2=O)CC1`: -5.47%; for `Cc1nnc(N2CCOC(C)(C(=O)NC3CCCC3)C2)c2ccccc12` (centres undefined): -3.81%.
On to `COc1cc(CCC(C)O)c(OC)c2c1OCO2` (centres undefined), for which the cytotoxicity at 70.5 h is -4.78%.
For `CCNC(=O)CN1CCC(c2cc(OC)cc(OC)c2)C1` (centres undefined) the value was -10.7%.
The same measure for `NC(=O)N1CCCCCC1C1CCN(c2nccc(C(F)(F)F)n2)CC1` (centres undefined): -13.9%; for `CC(Cn1cccn1)NCC(=O)NC1(C#N)CCCCC1` (centres undefined): 21.3%.
For `COc1cc(C)c(CNC(C)c2csc(C)n2)cc1OC` (centres undefined) the value was -2.42%; for `CCn1nnc2c1C(COCC(=O)N(C)C)CN(Cc1ccoc1)C2` (centres undefined), -0.882%.
Turning to `O=C(NCC1CCS(=O)(=O)C1)c1cccc(CN2CCCC2)c1` (centres undefined), the cytotoxicity at 70.5 h is -16%.
The same measure for `CCN(Cc1cccc2c1OCO2)C(=O)C(C)c1cccnc1` (centres undefined): 1.7%.
For the molecule `Cc1ccsc1CN(Cc1nc2c(cnn2C)c(=O)[nH]1)C(C)C`, the cytotoxicity at 70.5 h came to 2.45%.
For the molecule `CC(=O)N(Cc1ncc(C)o1)C1CCN(Cc2noc(C)n2)C1` (centres undefined), the cytotoxicity at 70.5 h was -5.31%.
For `CCOc1cc(NC(=O)N2CCC(c3nnc[nH]3)CC2)ccc1C` the value was -0.547%.
For `CN1CCCc2cc(CNC(=O)c3cccnc3O)ccc21` the value was -1.9%.
The same measure for `O=C(c1ccc2c(c1)[nH]c(=O)n2C1CCCC1)N1CCCSCC1`: -8.62%; for `Cn1cc(CN2CCn3cc(CNC(=O)C4CCC4)nc3C2)cn1`: 2.26%; for `CC(C)(C)c1ncc(C(=O)NCCSc2ccccn2)c(O)n1`: 30.9%.
With `Cn1[nH]c(C2CCC2)c(-c2ccc3c(c2)OCO3)c1=N`, the cytotoxicity at 70.5 h was -3.82%.
For the molecule `O=C1CO[C@H]2CN(C3CCOCC3)C[C@H]2N1Cc1ccccn1`, the cytotoxicity at 70.5 h came to 1.72%.
For `CS(=O)(=O)NCCNC(=O)NC1(c2ccc(Cl)cc2)CCC1` the value was 16.5%; for `CN(C)C(=O)c1cncnc1-c1ccc(CNC(=O)C2CCCO2)cc1` (centres undefined), 10.6%.
For `CCc1nnc(CN2CCN(C(C)=O)CC2)o1` the value was -1.65%.
The same measure for `CCC1(CO)CCCN(C(=O)c2cc(COc3cccc(F)c3)[nH]n2)C1` (centres undefined): -3.53%.
As for `Cc1cnn(CC2CCCN2C(=O)CCc2c(C)noc2Cl)c1` (centres undefined), the cytotoxicity at 70.5 h was -8.81%.
For `O=C(COc1ccccc1F)NCCC(O)c1ccco1` (centres undefined) the value was -3.87%; for `c1cnc(N2CCc3onc(CN4CCOCC4)c3C2)cn1`, -9.12%; for `COCCCn1c(CN2CCSCC2)cnc1S(=O)(=O)C1CCCC1`, -2.29%.
As to `CC(C)NC(=O)NCCn1cnc(C2CCCC2)cc1=O`, the cytotoxicity at 70.5 h was -6.52%.
On to `CC(C#N)CNS(=O)(=O)c1ccc(Br)c(F)c1` (centres undefined), for which the cytotoxicity at 70.5 h is -8.29%.
For `CC(C)COC(=O)N1CCCN(C(=O)c2ccnc(N(C)C)c2)CC1` the value was 1.08%; for `COCCC(=O)N1CCCC([C@@H]2C[C@H](C(F)F)n3ncnc3N2)C1` (some centres undefined), -4.06%.
For `COC(=O)N1CC(C)=C(C)CN1C(=O)Nc1ccc(Cl)c(Cl)c1` the value was 4.31%; for `CCOc1cc(F)ccc1NC(=O)NCC(c1cnn(C)c1)N(C)C` (centres undefined), -0.683%.
On to `O=C1N(Cc2cccc(F)c2F)CCCC1(O)CNC1CCCC1` (centres undefined), for which the cytotoxicity at 70.5 h was -2.45%.
The same measure for `OC(c1ccccc1)c1cn(C2CCN(Cc3nccs3)CC2)nn1` (centres undefined): -11.3%; for `CC(NC(=O)NCCCOc1ccccc1F)c1nncn1C` (centres undefined): -7.39%.
Regarding `COCc1ccc(C(=O)N2CCC(c3nccn3CC3CC3)CC2)o1`, the cytotoxicity at 70.5 h is -0.956%.
On to `COc1ccc2c(c1)c(-c1nc(N(C)C)ncc1CN)cn2C`, for which the cytotoxicity at 70.5 h was 12.9%.
For `N[C@H]1CN(CCCOc2ccccc2)C[C@@H]1C1CC1` the value was -3.74%; for `CCOc1ccc(NS(=O)(=O)c2cc(C)c(C(=O)O)s2)c(C)c1`, -3.91%.
For `CN(c1ncnc2c1cnn2C)C1CCCN(c2cccnn2)C1` (centres undefined) the value was 0.765%; for `COCc1nc2n(n1)CCCC2Nc1nc(C(C)C)ns1` (centres undefined), -6.22%; for `O=C(NC[C@]12COC[C@H]1CN(Cc1cccnc1)C2)c1ccsc1`, 11.5%.
Take `O=C(NC1CC1)C1CCN(c2cccc(C(F)(F)F)n2)CC1`: the cytotoxicity at 70.5 h was -1.37%.
The same measure for `Cc1cc(NC(=O)NCC(c2ccc(C)o2)N2CCOCC2)n(C)n1` (centres undefined): 21%.
Regarding `CSCC(=O)N1CCc2c(cnc(C)c2-c2noc(-c3cscn3)n2)C1`, the cytotoxicity at 70.5 h is -15.6%.
The same measure for `COC(=O)C(c1cc(F)ccc1F)N(C)C(=O)c1ccnc(C)n1` (centres undefined): 1.49%; for `CSc1ncccc1C(=O)N1C[C@H]2CC[C@@H]1CN(c1cnccn1)C2`: -10.6%; for `CC(C)(C)c1noc(OCC(=O)NC2CCCC2)n1`: 0.264%.
For `CS(=O)(=O)c1cncnc1C1CCCN(C(=O)Nc2ccc(F)cc2)C1` (centres undefined) the value was -4.34%; for `CC(C)Cc1cc(C(=O)NCCN2CCCS2(=O)=O)[nH]n1`, -10.6%; for `CN(CCn1nc2ccccn2c1=O)CC(=O)N(C)C1CCCCC1`, 2.32%.
As for `COCCCN(C(=O)c1ccc(-n2ccnc2)cc1)C1CCN(C)CC1`, the cytotoxicity at 70.5 h stood at 35.1%.
Turning to `CCc1nnc2n1CC(CNCc1nc(-c3ccsc3)no1)CC2` (centres undefined), the cytotoxicity at 70.5 h is -4.57%.
For `CC(C(=O)N(Cc1ccccc1)CC(F)(F)F)S(C)(=O)=O` (centres undefined), the cytotoxicity at 70.5 h was -5.47%.
For `OC(CN1CCN(CC(F)F)CC1)c1ccc(Br)cc1` (centres undefined) the value was 1.14%; for `Cc1ccccc1CCCN(C)S(C)(=O)=O`, -3.41%.
As for `CCN1CC[C@@]2(C(=O)N(C)C)CCN(S(=O)(=O)c3ccccc3)CC[C@@H]12`, the cytotoxicity at 70.5 h is -9.93%.
In the case of `Cn1cc(CNC(=O)c2cc3c(s2)CCCCC3)cn1`, the cytotoxicity at 70.5 h was -3.43%.
The same measure for `c1cnn(CC2CCCCN2Cc2noc(C3CC3)n2)c1` (centres undefined): -6.47%; for `Cc1cc(C)c(C#N)c(NCCn2cnnc2C(C)C)n1`: 0.173%; for `CCOC(=O)CC1CCCCN1C(=O)c1cc(C)oc1C` (centres undefined): 3.76%.
On to `CCC1CN(C(=O)c2cccc(OCc3cscn3)c2)CCO1` (centres undefined), for which the cytotoxicity at 70.5 h was -5.57%.
For `O=C(NCCCSC1CCCCC1)C1NCCc2[nH]cnc21` (centres undefined) the value was -1.27%.
As to `COc1ccccc1Oc1ncccc1CNC(=O)[C@@H](N)[C@@H](C)O`, the cytotoxicity at 70.5 h was -1.67%.
For `COc1ccc(CNC[C@@]2(COc3cccnc3)C[C@@H](O)[C@@H](O)C2)cc1` the value was 10.2%.
The same measure for `CC(C)N1[C@H](Cn2cncn2)C[C@@H]2CN(c3ncccn3)CC[C@@H]21`: -0.391%.
The same measure for `CC(C)NC(=O)CCNC(=O)Nc1ccc(-n2cncn2)c(F)c1`: -11.5%.
For the molecule `COc1ccccc1NC(=O)Cc1c(C)nc2c(c1C)c(=O)[nH]n2C`, the cytotoxicity at 70.5 h was -3.59%.
For `COc1cc(N2C[C@H]3OCC[C@H]3[C@H](C(=O)N3CCCC3)C2)ncn1` the value was 27.7%; for `c1cnc(N2CCOCC3(CNCCO3)C2)nc1` (centres undefined), 15.5%.
For `Cc1nc(CC(=O)N2CCCC(n3ccnc3C(C)C)C2)cs1` (centres undefined) the value was -6.07%.
For `CCc1nc2ccccc2c(=O)n1CC1(O)CCN(C(=O)C2CC2)CC1` the value was -11.5%; for `COc1ccc(CN(C)C2CCN(C(=O)C(C)C)CC2)c2cccnc12`, -10.3%; for `COc1cc(CCC(=O)NC2CCCN(C)C2)ccc1OCC(F)(F)F` (centres undefined), -7.07%.
Regarding `CS(=O)(=O)CCC(=O)Nc1ccsc1`, the cytotoxicity at 70.5 h is -14.4%.
Regarding `O=C(CN1CC(c2nc(-c3cccs3)no2)C1)NCC1CCCO1` (centres undefined), the cytotoxicity at 70.5 h is -2.94%.
Consider `COC(=O)c1cc(C(=O)N2CCC(OC)CC2)n(-c2ccccc2)n1`, for which the cytotoxicity at 70.5 h was -2.53%.
Regarding `O=S(=O)(NCC1COc2ccccc2C1)N1CCCCCC1` (centres undefined), the cytotoxicity at 70.5 h was -7.48%.
For the molecule `O=C(NCCc1ccccn1)C1=NN(c2ccccc2)C(=O)CN1`, the cytotoxicity at 70.5 h is -6.71%.
For `Nc1nccc(C2CCN(c3cnccn3)C2)n1` (centres undefined) the value was 21.1%.
`O=c1oc(-c2ccc(F)cc2)nn1CCc1ccncc1`: the cytotoxicity at 70.5 h was -9.83%.
The same measure for `CCc1ccccc1NC(=O)c1cccc(N(C)S(C)(=O)=O)c1C`: -4.65%; for `Cc1cc(-c2cnn(CCNC(=O)c3cc[nH]n3)c2C2CC2)on1`: -0.801%.
`Cc1csc(CCNC(=O)C2CCN(CC(N)=O)CC2)n1`: the cytotoxicity at 70.5 h worked out at 8.97%.
With `COCCC1(CNC(=O)Nc2ccc(-n3cccn3)cc2)CCC1`, the cytotoxicity at 70.5 h amounted to 2.32%.
The same measure for `CCc1cnccc1C(=O)NC1CCN(Cc2ccccc2F)CC1`: -6.35%.
